# Measurements as given in patent US9677109B2, “Rapid determination of microbial growth and antimicrobial susceptibility” (priority 2013, dated 2017).
# Columns and labels:
# Type in all cases: cell-based
# [1] = system: Staphylococcus aureus (STAU); assay: MADM resistance phenotype test, respiratory specimens
# Experimental: (ABCC). Concurrent quantitative culture (qCx) was performed on specimens.
# 20 μL samples of prepared specimen were pipetted into independent flowcell channels and a low-voltage electrical field was applied for 5 minutes. The electrical field concentrated bacteria onto a functional surface coating that immobilized the bacteria on the lower flowcell surface. Each flowcell channel received only one type of test reagent solution that contained a selective agent if required (only for channels used to test AB, sulbactam 32 μg/mL).
# The instrument acquired images at 10-minutes intervals for 180 minutes, using 10 fields of view in each flowcell channel through a 20× objective. Imaging used darkfield illumination. Identification variables included response to selective agents (AB with sulbactam), cell morphology, growth morphology, and growth rate.
# Identification algorithms applied to each individual immobilized bacterial cell. The system measured the amount of change in mass over time to compute growth rates. Identification consisted of computing and combining probability scores for morphology, response to selective media, and growth rates to produce a receiver operating characteristic curve (ROC) to derive classification criteria.
# [2] = system: Enteric; assay: MADM (BACcel) growth analysis sensitivity, surveillance mini-BAL; conditions: specimen 005-D7, BACcel ID Enteric, 1.26 × 10^5 CFU/ml
# Experimental: (§1) Adult MICU patients with identified surrogate were included within 72 hours of intubation and if anticipated to require MV for >48 h. Moribund state or pregnancy were exclusions. Surveillance mini-BAL (Combicath, Plastimed) was performed on Day 1, 3, 5, 7 and 10 of MV. Samples were split and processed for both a) routine respiratory quantitative microbiological culture and sensitivity assays (>48 h result availability) and b) rapid (<8 h) flowcell/surface-capture assays using the MADM system. Viable microorganisms were identified using growth analysis enhanced by a focused VAP antibody panel (S. aureus, P. aeruginosa, A. baumannii). Untypable organisms were also reported. Sensitivity was assessed using growth analysis. Attending physicians were blinded to MADM system results.
# (§2) BAL sample were prepared, removing debris and separating microorganisms from other sample material. Sample microorganisms were introduced into a multichannel fluidic cassette as described elsewhere herein. Bacteria were concentrated and retained on the lower surface of all flowcells using low-voltage electrical field (5 min). Antibody labeling of bacteria in flowcells was used to aid identification.
# (§3) The automated digital microscopy system was used to perform darkfield imaging of 10 fields of view every 10 minutes for 180 minutes in each flowcell channel. Initial epifluorescence imaging was also performed for antibody detection. […] Identification consisted of probability scores based on microorganism morphology and growth rates. Antibody labeling identification data was also incorporated. Observed microorganisms were then classified as STAU, PSAE, or non-target. Antibiotic responses were used to aid identification when appropriate. Quantitation was performed by counting identified microorganism and computing original specimen CFU/mL.
# [3] = system: S. aureus (STAU); assay: as above; conditions: specimen 008-D7, BACcel ID STAU, 1.11 × 10^6 CFU/ml
# Experimental: as §1, §2, §3
# [4] = system: S. maltophilia (Steno); assay: as above
# Experimental: as §1, §2, §3
# [5] = system: Staphylococcus aureus (SA); assay: MADM clone growth in antibiotic agar, simulated blood specimens; conditions: SA in 6 μg/mL FOX, FIG. 10B, three hours
# Experimental: The MADM system used a custom microscope and pipetting robot, plus an evaluation system, as described herein. 32-channel disposable cassettes (FIG. 4A) enabled live microorganism immobilization for microscopy and fluid exchanges for different test agents. The microscope scanned 40 image fields in each flowcell channel, each channel having organisms extracted from about 3.5 μL of prepared inoculum.
# Simulated blood specimens consisted of isolates spiked into 10 mL each of 29 aliquots of two short-fill CPD blood bank bags to make approximately 5 CFU/mL of bacterial target species, confirmed by quantitative culture. Spiked isolates included 14 Staphylococcus aureus (SA), 3 Pseudomonas aeruginosa (PA), or 12 non-target Gram-negative bacilli species. Dilution of each sample with 30 mL of modified TSB culture medium promoted growth. 20 additional control aliquots contained no spikes. 4-hour incubation at 35° C., followed with brief spin cleanup, ended with pellet resuspension into an electrokinetic buffer to make 1 mL samples for MADM system analysis. 20 μL sample aliquots were then pipetted into 14 cassette flowcells. A 5-minute low-voltage electrokinetic capture was performed to concentrate microorganisms on the lower surface of each flowcell where a capture coating immobilized the bacterial cells. […]
smiles,measurement,setting,value
"CO[C@@]1(NC(=O)Cc2cccs2)C(=O)N2C(C(=O)O)=C(COC(N)=O)CS[C@@H]21 [FOX, cefoxitin]",MADM resistance phenotype,"[1]; specimen DH 425, Mini-BAL",R
same,MADM resistance phenotype,"[1]; specimen DH 427, Mini-BAL",S
same,MADM resistance phenotype,"[1]; specimen DH 439, Mini-BAL",R
same,MADM resistance phenotype,"[1]; specimen DH 440, BAL",S
same,MADM resistance phenotype,"[1]; specimen DH 457, BAL",S
same,MADM resistance phenotype,"[1]; specimen DH 485, BAL",S
same,MADM resistance phenotype,"[1]; specimen DH 509, BAL",S
same,MADM resistance phenotype,"[1]; specimen DH 514, Mini-BAL",S
same,MADM resistance phenotype,"[1]; specimen DH 543, BAL",S
same,MADM resistance phenotype,"[1]; specimen DH 550, BAL",S
same,MADM resistance phenotype,"[1]; specimen DH 556, Mini-BAL",S
same,MADM resistance phenotype,"[1]; specimen T12, ETA",R
same,"Phenotype, sensitivity",[2],all growth
same,"Phenotype, sensitivity",[3],FOX-R
same,"Phenotype, sensitivity","[4]; specimen 006-D1, BACcel ID Steno, 7.68 × 10^5 CFU/ml","growth, TZP-"
same,"Phenotype, sensitivity","[4]; specimen 006-D3, BACcel ID Steno, 1.60 × 10^4 CFU/ml","growth, TZP-"
same,Clone growth,[5],growth indicating MRSA phenotype
